One experiment concerns the target PI3Kα (Homo sapiens, UniProt P42336). Description: PI3Kα enzyme assay (Transcreener ADP2 TR-FRET Red Assay). In kind it is biochemical. To be noted: purified recombinant full-length protein; 2 hours pre-incubation with compound; read-out: PI3Kα WT IC50. Put shortly:
(§1)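 IC50 taken at 50 POC from a four-parameter logistic fit of TR-FRET (665/615 nm) ADP signal. Reactions used full-length recombinant enzyme, compound pre-incubation for 2 h, then 60 min with ATP and PI(4,5)P2 diC8 substrate at room temperature, pH 7.5 HEPES buffer with 25 mM MgCl2; compounds tested from 50,000 to 0.85 nM.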

Another experiment addresses PI3Kα H1047R (Homo sapiens, UniProt P42336, H1047R). As to the kind of experiment: PI3Kα H1047R enzyme assay (Transcreener ADP2 TR-FRET Red Assay). As to conditions: purified recombinant full-length protein; 2 hours pre-incubation with compound. In kind it is biochemical. An outline of the steps: as §1
The test system of experiment [1] is SKBR3 (PI3Kα-Wild Type) cell line. As to the kind of experiment: HTRF phospho-AKT(S473) cell assay in SKBR3 cells. In kind it is cell-based, human. To be noted: Homo sapiens, SK-BR-3; SKBR3 (PI3Kα-Wild Type) cells, HTRF phospho-AKT(S473), 2 hours compound incubation, PDGF-BB stimulated. An outline of the steps:
(§2)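 HTRF read-out of phospho-AKT(S473) in lysates gave IC50 values after 2 h compound exposure at 37° C. Dose series was 12 points at 1:3, topping at 5 μM for T47D and 10 μM for SKBR3. Only SKBR3 received 70 ng/ml PDGF-BB during the last 15 minutes.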

Experiment [2] relates to T47D (PI3Kα-H1047R) cell line. As to the kind of experiment: HTRF phospho-AKT(S473) cell assay in T47D cells. Format: cell-based, human. To be noted: Homo sapiens; T47D (PI3Kα-H1047R) cells, HTRF phospho-AKT(S473), 2 hours compound incubation. An outline of the steps:
as §2

Chain of PI3Kα H1047R (P42336 whole entry H1047R): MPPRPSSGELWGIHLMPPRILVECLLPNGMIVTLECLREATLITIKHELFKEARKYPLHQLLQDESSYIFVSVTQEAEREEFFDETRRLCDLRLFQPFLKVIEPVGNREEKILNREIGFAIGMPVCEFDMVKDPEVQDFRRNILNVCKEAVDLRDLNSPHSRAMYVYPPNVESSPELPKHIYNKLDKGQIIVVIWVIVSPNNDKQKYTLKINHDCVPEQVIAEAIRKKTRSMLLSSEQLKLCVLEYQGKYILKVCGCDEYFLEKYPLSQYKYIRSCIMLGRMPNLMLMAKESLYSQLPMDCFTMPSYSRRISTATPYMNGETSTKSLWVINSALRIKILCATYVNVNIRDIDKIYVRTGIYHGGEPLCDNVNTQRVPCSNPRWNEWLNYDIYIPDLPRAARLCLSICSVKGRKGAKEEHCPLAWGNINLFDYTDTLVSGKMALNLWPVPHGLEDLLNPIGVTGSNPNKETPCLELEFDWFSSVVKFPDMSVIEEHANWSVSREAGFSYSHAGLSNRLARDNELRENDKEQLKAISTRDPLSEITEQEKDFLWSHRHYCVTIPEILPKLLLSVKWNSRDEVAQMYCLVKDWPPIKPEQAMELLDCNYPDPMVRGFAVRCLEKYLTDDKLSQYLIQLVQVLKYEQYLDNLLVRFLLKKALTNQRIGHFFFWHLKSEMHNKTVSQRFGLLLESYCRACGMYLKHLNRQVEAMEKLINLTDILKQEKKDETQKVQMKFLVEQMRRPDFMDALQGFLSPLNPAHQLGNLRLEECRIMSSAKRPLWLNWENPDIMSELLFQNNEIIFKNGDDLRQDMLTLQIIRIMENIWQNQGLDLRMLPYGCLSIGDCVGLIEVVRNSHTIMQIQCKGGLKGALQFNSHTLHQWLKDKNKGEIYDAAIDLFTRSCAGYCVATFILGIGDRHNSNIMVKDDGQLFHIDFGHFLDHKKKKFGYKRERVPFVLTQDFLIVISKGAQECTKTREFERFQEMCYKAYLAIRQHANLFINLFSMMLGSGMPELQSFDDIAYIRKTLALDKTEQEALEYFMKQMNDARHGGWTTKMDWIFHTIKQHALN
Chain of PI3Kα H1047R (P27986 2-724 partner): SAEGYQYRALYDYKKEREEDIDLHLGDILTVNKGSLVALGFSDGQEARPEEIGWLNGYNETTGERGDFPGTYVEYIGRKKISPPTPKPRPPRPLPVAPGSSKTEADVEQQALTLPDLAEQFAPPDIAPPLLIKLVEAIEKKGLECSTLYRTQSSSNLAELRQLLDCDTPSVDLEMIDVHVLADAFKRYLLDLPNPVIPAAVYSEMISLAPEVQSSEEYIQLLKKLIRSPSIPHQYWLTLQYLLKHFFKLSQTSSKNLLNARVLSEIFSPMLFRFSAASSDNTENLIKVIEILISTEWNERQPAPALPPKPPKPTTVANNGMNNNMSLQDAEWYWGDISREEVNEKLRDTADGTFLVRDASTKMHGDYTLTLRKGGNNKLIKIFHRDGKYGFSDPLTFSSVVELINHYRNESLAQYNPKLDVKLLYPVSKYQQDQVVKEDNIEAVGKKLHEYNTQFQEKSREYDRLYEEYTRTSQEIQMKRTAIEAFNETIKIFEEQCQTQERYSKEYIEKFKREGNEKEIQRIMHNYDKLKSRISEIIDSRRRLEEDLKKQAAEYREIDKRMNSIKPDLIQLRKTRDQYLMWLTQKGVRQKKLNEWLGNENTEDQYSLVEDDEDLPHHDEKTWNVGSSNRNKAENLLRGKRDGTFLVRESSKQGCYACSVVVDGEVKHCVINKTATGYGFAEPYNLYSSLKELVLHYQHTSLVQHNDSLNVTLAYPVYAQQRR
Chain of PI3Kα (P42336 whole entry): as the sequence (P42336 whole entry H1047R) above, with R1047H counted along it
Chain of PI3Kα (P27986 2-724 partner): as the sequence (P27986 2-724 partner) above

Turning to `Cc1cc([C@@H](C)Nc2ccc(Cl)nc2C(=O)NS(C)(=O)=O)c2nc(NCC(F)(F)F)n(C)c(=O)c2c1` [Compound 34, (R)-6-chloro-3-((1-(3,6-dimethyl-4-oxo-2-((2,2,2-trifluoroethyl)amino)-3,4-dihydroquinazolin-8-yl)ethyl)amino)-N-(methylsulfonyl) picolinamide], the IC50 on PI3Kα was at least 1 µM; at PI3Kα H1047R it was 0.5 to 1 µM; in experiment [1], 1 to 5 µM; in experiment [2], 0.25 to 0.5 µM.

As for `Cc1cc([C@@H](C)Nc2ccc(Cl)nc2C(=O)NS(C)(=O)=O)c2nc(N3CCO[C@@H](C)C3)n(C)c(=O)c2c1` [Compound 36, 6-chloro-3-(((R)-1-(3,6-dimethyl-2-((S)-2-methylmorpholino)-4-oxo-3,4-dihydroquinazolin-8-yl)ethyl)amino)-N-(methylsulfonyl) picolinamide], the IC50 on PI3Kα was at least 1 µM; on PI3Kα H1047R, at least 1 µM; in experiment [1], 1 to 5 µM; in experiment [2] it was 0.25 to 0.5 µM.

Take `COc1ccc(N[C@H](C)c2cc(C)cc3c(=O)n(C)c(N4Cc5ccc(F)cc5C4)nc23)c(C(=O)NS(C)(=O)=O)n1` [Compound 65, (R)-3-((1-(2-(5-fluoroisoindolin-2-yl)-3,6-dimethyl-4-oxo-3,4-dihydro-quinazolin-8-yl)ethyl)amino)-6-methoxy-N-(methylsulfonyl) picolinamide]: the IC50 was at least 1 µM at PI3Kα, at least 1 µM on PI3Kα H1047R, 1 to 5 µM in experiment [1] and 0.5 to 1 µM in experiment [2].

On to `CCn1cc2c(n1)CN(c1nc3c([C@@H](C)Nc4ccc(Cl)nc4C(=O)NS(C)(=O)=O)cc(C)cc3c(=O)n1C)C2` [Compound 44, (R)-6-chloro-3-((1-(2-(2-ethyl-2,6-dihydropyrrolo[3,4-c]pyrazol-5(4H)-yl)-3,6-dimethyl-4-oxo-3,4-dihydroquinazolin-8-yl)ethyl)amino)-N-(methylsulfonyl) picolinamide], for which the IC50 on PI3Kα is at least 1 µM; at PI3Kα H1047R, 0.1 to 0.25 µM; in experiment [1] it was 1 to 5 µM; in experiment [2], below 0.25 µM.

Regarding `Cc1cc([C@@H](C)Nc2ccc(Cl)nc2C(=O)NS(C)(=O)=O)c2nc(OCc3ccccc3)n(C)c(=O)c2c1` [Compound 50, (R)-3-((1-(2-(benzyloxy)-3,6-dimethyl-4-oxo-3,4-dihydroquinazolin-8-yl)ethyl)amino)-6-chloro-N-(methylsulfonyl) picolinamide], the IC50 at PI3Kα is at least 1 µM; at PI3Kα H1047R it was 0.25 to 0.5 µM; in experiment [1], 1 to 5 µM; in experiment [2], 1 to 5 µM.

Consider `Cc1cc([C@@H](C)Nc2ccc(Cl)nc2C(=O)NS(C)(=O)=O)c2nc(N3C[C@H]4C[C@@H]3CO4)n(C)c(=O)c2c1` [Compound 26, 3-(((R)-1-(2-((1R,4R)-2-oxa-5-azabicyclo[2.2.1]heptan-5-yl)-3,6-dimethyl-4-oxo-3,4-dihydroquinazolin-8-yl)ethyl)amino)-6-chloro-N-(methylsulfonyl) picolinamide], for which the IC50 was at least 1 µM at PI3Kα, 0.5 to 1 µM on PI3Kα H1047R, 1 to 5 µM in experiment [1] and below 0.25 µM in experiment [2].

On to `Cc1cc([C@@H](C)Nc2cc(C)c(F)nc2C(=O)NS(C)(=O)=O)c2nc(N3Cc4ccc(F)cc4C3)n(C)c(=O)c2c1` [Compound 69, (R)-6-fluoro-3-((1-(2-(5-fluoro-isoindolin-2-yl)-3,6-dimethyl-4-oxo-3,4-dihydroquinazolin-8-yl)ethyl)amino)-5-methyl-N-(methylsulfonyl)picolinamide], for which the IC50 at PI3Kα is at least 1 µM; at PI3Kα H1047R, at least 1 µM; in experiment [1] it was at least 5 µM; in experiment [2], 1 to 5 µM.

With `Cc1cc([C@@H](C)Nc2ccc(Cl)nc2C(=O)NS(C)(=O)=O)c2nc(-c3cccc(F)c3F)n(C)c(=O)c2c1` [Compound 82, (R)-6-chloro-3-((1-(2-(2,3-difluorophenyl)-3,6-dimethyl-4-oxo-3,4-dihydroquinazolin-8-yl)ethyl)amino)-N-(methylsulfonyl)picolinamide], the IC50 at PI3Kα is at least 1 µM; on PI3Kα H1047R, at least 1 µM; in experiment [1] it was 1 to 5 µM; in experiment [2], 0.5 to 1 µM.

As for `Cc1cc([C@@H](C)Nc2ccc(Cl)nc2C(=O)NS(C)(=O)=O)c2nc(-c3cnc(C)nc3)n(C)c(=O)c2c1` [Compound 86, (R)-6-chloro-3-((1-(3,6-dimethyl-2-(2-methylpyrimidin-5-yl)-4-oxo-3,4-dihydroquinazolin-8-yl)ethyl)amino)-N-(methylsulfonyl) picolinamide], the 50% inhibitory concentration (IC50) on PI3Kα is at least 1 µM; at PI3Kα H1047R, at least 1 µM; in experiment [1] it was 1 to 5 µM; in experiment [2], 0.5 to 1 µM.

Consider `Cc1cc([C@@H](C)Nc2ccc(Cl)nc2C(=O)NS(C)(=O)=O)c2nc(NCC3CC3)n(C)c(=O)c2c1` [Compound 8, (R)-6-chloro-3-((1-(2-((cyclopropylmethyl)amino)-3,6-dimethyl-4-oxo-3,4-dihydroquinazolin-8-yl)ethyl)amino)-N-(methylsulfonyl) picolinamide], for which the IC50 on PI3Kα was at least 1 µM; on PI3Kα H1047R it was 0.25 to 0.5 µM; in experiment [1], 1 to 5 µM; in experiment [2], 0.25 to 0.5 µM.

As to `C[C@@H](Nc1ccc(Cl)[nH]c1=O)c1cc(F)cc2c(=O)n(C)c(N3Cc4cnn(C)c4C3)nc12` [Compound 100, (R)-8-(1-((6-chloro-2-oxo-1,2-dihydropyridin-3-yl)amino)ethyl)-6-fluoro-3-methyl-2-(1-methyl-4,6-dihydropyrrolo[3,4-c]pyrazol-5(1H)-yl)quinazolin-4(3H)-one], the half-maximal inhibitory concentration (IC50) on PI3Kα is at least 1 µM; on PI3Kα H1047R, below 0.1 µM; in experiment [1], at least 5 µM; in experiment [2], below 0.25 µM.

With `Cc1cc([C@@H](C)Nc2ccc(Cl)nc2C(=O)NS(C)(=O)=O)c2nc(N3CCOCC3)n(C)c(=O)c2c1` [Compound 5, (R)-6-chloro-3-((1-(3,6-dimethyl-2-morpholino-4-oxo-3,4-dihydroquinazolin-8-yl)ethyl)amino)-N-(methylsulfonyl) picolinamide], the IC50 at PI3Kα was at least 1 µM; at PI3Kα H1047R it was 0.5 to 1 µM; in experiment [1], 1 to 5 µM; in experiment [2] it was below 0.25 µM.

As to `Cc1cc([C@@H](C)Nc2ccc(Cl)nc2C(=O)NS(C)(=O)=O)c2nc(OCc3cccnc3)n(C)c(=O)c2c1` [Compound 56, (R)-6-chloro-3-((1-(3,6-dimethyl-4-oxo-2-(pyridin-3-ylmethoxy)-3,4-dihydroquinazolin-8-yl)ethyl)amino)-N-(methylsulfonyl) picolinamide], the IC50 was at least 1 µM at PI3Kα, at least 1 µM at PI3Kα H1047R, 1 to 5 µM in experiment [1] and 0.25 to 0.5 µM in experiment [2].

For the compound `Cc1cc([C@@H](C)Nc2ccc(Cl)nc2C(=O)NS(C)(=O)=O)c2nc(N3CCOC[C@H]3C)n(C)c(=O)c2c1` [Compound 55, 6-chloro-3-(((R)-1-(3,6-dimethyl-2-((R)-3-methylmorpholino)-4-oxo-3,4-dihydroquinazolin-8-yl)ethyl)amino)-N-(methylsulfonyl) picolinamide], the IC50 is at least 1 µM on PI3Kα, 0.5 to 1 µM at PI3Kα H1047R, 1 to 5 µM in experiment [1] and below 0.25 µM in experiment [2].

For `CC(=O)NS(=O)(=O)c1nc(Cl)ccc1N[C@H](C)c1cc(C)cc2c(=O)n(C)c(N3Cc4ccc(F)cc4C3)nc12` [Compound 74, (R)—N-((6-chloro-3-((1-(2-(5-fluoroisoindolin-2-yl)-3,6-dimethyl-4-oxo-3,4-dihydroquinazolin-8-yl)ethyl)amino)pyridin-2-yl)sulfonyl)acetamide], the half-maximal inhibitory concentration (IC50) is at least 1 µM on PI3Kα, 0.1 to 0.25 µM at PI3Kα H1047R, at least 5 µM in experiment [1] and 0.25 to 0.5 µM in experiment [2].

With `Cc1cc([C@@H](C)Nc2cn(C)nc2C(N)=O)c2nc(N3Cc4ccc(F)cc4C3)n(C)c(=O)c2c1` (single isomer, unassigned) [Compound 108], the 50% inhibitory concentration (IC50) at PI3Kα was at least 1 µM; at PI3Kα H1047R, at least 1 µM; in experiment [1], at least 5 µM; in experiment [2], 1 to 5 µM.

Turning to `Cc1cc([C@@H](C)Nc2ccc(Cl)nc2S(=O)(=O)NC(=O)C(C)C)c2nc(N3Cc4ccc(F)cc4C3)n(C)c(=O)c2c1` [Compound 80, (R)-N-((6-chloro-3-((1-(2-(5-fluoroisoindolin-2-yl)-3,6-dimethyl-4-oxo-3,4-dihydroquinazolin-8-yl)ethyl)amino)pyridin-2-yl)sulfonyl)isobutyramide], the IC50 is at least 1 µM at PI3Kα, 0.1 to 0.25 µM at PI3Kα H1047R, at least 5 µM in experiment [1] and 0.5 to 1 µM in experiment [2].

As to `CC(=O)NS(=O)(=O)c1nc(Cl)ccc1N[C@H](C)c1cc(C)cc2c(=O)n(C)c(N3CCC(F)(F)CC3)nc12` [Compound 78, (R)-N-((6-chloro-3-((1-(2-(4,4-difluoropiperidin-1-yl)-3,6-dimethyl-4-oxo-3,4-dihydroquinazolin-8-yl)ethyl)amino)pyridin-2-yl)sulfonyl)acetamide], the IC50 on PI3Kα was at least 1 µM; at PI3Kα H1047R, 0.5 to 1 µM; in experiment [1], 1 to 5 µM; in experiment [2], 0.25 to 0.5 µM.
